Reference: article PMC10600239, “Selective MCL-1 inhibitor ABBV-467 is efficacious in tumor models but is associated with cardiac troponin increases in patients” (Communications Medicine, 2023)
“And” between values parts separate entries of the source, which are not always exact repeats. Equal entries are not always repeated.

Assays:
[1] = system: OCI-AML2 xenografts; test: OCI-AML2 xenograft efficacy (tumor volume, body weight); details: venetoclax 25 mg/kg QD × 14, azacitidine 8 mg/kg Q7D × 3, or the combination of both
Protocol: All animal studies were conducted in accordance with the guidelines approved by the Institutional Animal Care and Use Committees of AbbVie. The research protocol was approved by In Vivo Pharmacology at AbbVie prior to study initiation but was not publicly registered or disclosed. Female C.B-17 SCID-beige mice (AMO-1, OPM-2, NCI-H929, and OCI-AML2 xenografts) and female NSG mice (MV4-11-Red.Fluc systemic) were purchased from Charles River Laboratories (Wilmington, MA). Animals were housed in a light cycle-controlled room with HEPA filtration at 22 °C. Animals had nesting and climbing cage topper as the primary environmental enrichment. Animals were inoculated subcutaneously in the right flank with 5 × 10^6 (AMO-1, OPM-2, NCI-H929, and OCI-AML2) or intravenous (IV) with 5 × 10^6 (MV4-11-Red.Fluc). The inoculation volume (0.2 mL) comprised a 50:50 mixture of cells in growth media and Matrigel (BD Biosciences) for subcutaneous injections and 100% phosphate-buffered saline for IV administration. […] Electronic calipers were used to measure the length and width of each tumor 2 to 3 times per week. Tumor volume was estimated by applying the following equation: volume = length × width^2/2. All groups remained blinded during measurements and dosing; only veterinary staff were aware of group identity. When tumors reached approximately 200 mm^3, mice were randomized by match and distributed into treatment and control groups. All xenograft trials were conducted using 5 to 10 mice per group, and all mice were ear tagged and monitored individually throughout the studies.
For combination studies, all compounds were administered within 30 min of each other.
The tumor growth delay (TGD) percentage was determined as the percentage increase of the median time period for the treatment group to reach an arbitrary tumor volume of 1000 mm^3 relative to the vehicle control group. […] A power analysis was conducted using historical data to determine the number of animals required to yield significance of 0.05 at a 30% difference. There were no animals excluded. Data from experiments in vivo were analyzed using the student’s t-test for TGI values and the Mann–Whitney U test for TGD using Excel and GraphPad Prism. Fisher’s exact test was used to probe significance of differences in response frequency.

[2] = system: MV4-11-Red.Fluc; test: Systemic MV4-11-Red.Fluc model (bioluminescence, total flux); assay type: in vivo, mouse
Protocol: All animal studies were conducted in accordance with the guidelines approved by the Institutional Animal Care and Use Committees of AbbVie. The research protocol was approved by In Vivo Pharmacology at AbbVie prior to study initiation but was not publicly registered or disclosed. Female C.B-17 SCID-beige mice (AMO-1, OPM-2, NCI-H929, and OCI-AML2 xenografts) and female NSG mice (MV4-11-Red.Fluc systemic) were purchased from Charles River Laboratories (Wilmington, MA). Animals were housed in a light cycle-controlled room with HEPA filtration at 22 °C. Animals had nesting and climbing cage topper as the primary environmental enrichment. Animals were inoculated subcutaneously in the right flank with 5 × 10^6 (AMO-1, OPM-2, NCI-H929, and OCI-AML2) or intravenous (IV) with 5 × 10^6 (MV4-11-Red.Fluc). The inoculation volume (0.2 mL) comprised a 50:50 mixture of cells in growth media and Matrigel (BD Biosciences) for subcutaneous injections and 100% phosphate-buffered saline for IV administration. All cell lines used in this publication were authenticated using IDEXX for STR profiling as well as their IMPACT and human IMPACT panels for pathogen screening. Electronic calipers were used to measure the length and width of each tumor 2 to 3 times per week. Tumor volume was estimated by applying the following equation: volume = length × width^2/2. All groups remained blinded during measurements and dosing; only veterinary staff were aware of group identity. When tumors reached approximately 200 mm^3, mice were randomized by match and distributed into treatment and control groups. All xenograft trials were conducted using 5 to 10 mice per group, and all mice were ear tagged and monitored individually throughout the studies. Any animal with a tumor above 2000 mm^3 or 15% loss in body weight was euthanized and removed from the study. Tumor burden in the systemic MV4-11-Red.Fluc experiment was measured using an IVIS® spectrum from PerkinElmer by taking the total photon flux of the entire dorsal side of an individual mouse. Ten minutes prior to imaging, animals received intraperitoneally 0.2 mL of a 15-mg/mL solution of D-Luciferin (PerkinElmer, Catalog #122799) formulated in 100% phosphate-buffered saline. Animals were anesthetized using 3.5% isoflurane and maintained using 2%. Six days after inoculation, animals were imaged and randomized into vehicle and treatment groups at a total flux of ~1 × 10^8. A background control mouse that was tumor naive but received D-Luciferin was placed in the upper left corner of each image. The total flux from this animal was subtracted from the total flux of each animal present in the image. […]

[3] = Day 10, individual mice (ROI 2-10), listed as ABT-199
[4] = Day 13, individual mice (ROI 2-10), listed as ABT-199
[5] = Day 17, individual mice (ROI 2-10), listed as ABT-199
[6] = Day 20, individual mice (ROI 2-10), listed as ABT-199
[7] = Day 24, individual mice (ROI 2-10), listed as ABT-199
[8] = Day 31, individual mice (ROI 2-10), listed as ABT-199

CC1(C)CCC(CN2CCN(c3ccc(C(=O)NS(=O)(=O)c4ccc(NCC5CCOCC5)c([N+](=O)[O-])c4)c(Oc4cnc5[nH]ccc5c4)c3)CC2)=C(c2ccc(Cl)cc2)C1 [venetoclax]
effect on OCI-AML2 xenograft growth [1]: no meaningful effect
antitumor activity ([2]; 50 mg/kg for 21 days, PO): no antitumor activity
Total Flux ([2]; 648 h): 2.48E+10 p/s
Total Flux minus ROI 1 (background) ([2]; 648 h): 2.48E+10 p/s
Total Flux [p/s] [2, 3]: 3.06E+08 p/s and 5.81E+08 p/s and 2.31E+08 p/s and 9.72E+08 p/s and 7.29E+08 p/s and 4.72E+08 p/s and 3.55E+08 p/s and 4.65E+08 p/s and 4.49E+08 p/s
Total flux minus background control mouse (ROI 1) [2, 3]: 3.02E+08 p/s and 5.77E+08 p/s and 2.27E+08 p/s and 9.68E+08 p/s and 7.24E+08 p/s and 4.68E+08 p/s and 3.50E+08 p/s and 4.61E+08 p/s and 4.45E+08 p/s
Total Flux [p/s] [2, 4]: 1.30E+09 p/s and 1.10E+09 p/s and 6.50E+08 p/s and 9.71E+08 p/s and 1.65E+09 p/s and 8.95E+08 p/s and 8.72E+08 p/s and 1.18E+09 p/s and 1.23E+09 p/s
Total flux minus background control mouse (ROI 1) [2, 4]: 1.29E+09 p/s and 1.09E+09 p/s and 6.41E+08 p/s and 9.63E+08 p/s and 1.64E+09 p/s and 8.87E+08 p/s and 8.64E+08 p/s and 1.18E+09 p/s and 1.22E+09 p/s
Total Flux [p/s] [2, 5]: 3.56E+09 p/s and 4.83E+09 p/s and 3.68E+09 p/s and 6.21E+09 p/s and 6.82E+09 p/s and 2.69E+09 p/s and 4.42E+09 p/s and 4.69E+09 p/s and 4.88E+09 p/s
Total flux minus background control mouse (ROI 1) [2, 5]: 3.54E+09 p/s and 4.80E+09 p/s and 3.65E+09 p/s and 6.19E+09 p/s and 6.79E+09 p/s and 2.67E+09 p/s and 4.40E+09 p/s and 4.67E+09 p/s and 4.85E+09 p/s
Total Flux [p/s] [2, 6]: 8.57E+09 p/s and 1.38E+10 p/s and 5.34E+09 p/s and 1.24E+10 p/s and 6.94E+09 p/s and 6.64E+09 p/s and 8.48E+09 p/s and 1.02E+10 p/s and 9.62E+09 p/s
Total flux minus background control mouse (ROI 1) [2, 6]: 8.51E+09 p/s and 1.38E+10 p/s and 5.28E+09 p/s and 1.23E+10 p/s and 6.88E+09 p/s and 6.58E+09 p/s and 8.42E+09 p/s and 1.02E+10 p/s and 9.56E+09 p/s
Total Flux [p/s] [2, 7]: 9.23E+09 p/s and 1.74E+10 p/s and 6.63E+09 p/s and 2.32E+10 p/s and 2.87E+10 p/s and 1.25E+10 p/s and 1.47E+10 p/s and 1.56E+10 p/s and 1.06E+10 p/s
Total flux minus background control mouse (ROI 1) [2, 7]: 9.16E+09 p/s and 1.73E+10 p/s and 6.56E+09 p/s and 2.31E+10 p/s and 2.87E+10 p/s and 1.24E+10 p/s and 1.46E+10 p/s and 1.55E+10 p/s and 1.06E+10 p/s
Total Flux minus ROI 1 (background) ([2]; Day 27, individual ROI (one per animal), background-subtracted, listed as ABT-199): 2.02E+10 p/s and 1.49E+10 p/s and 4.29E+10 p/s and 4.73E+10 p/s and 2.09E+10 p/s and 3.23E+10 p/s and 1.93E+10 p/s and 2.82E+10 p/s
Total Flux ([2]; Day 27, individual ROI (one per animal, ROI 2-10), raw value, listed as ABT-199): 2.04E+10 p/s and 1.50E+10 p/s and 4.31E+10 p/s and 4.74E+10 p/s and 2.11E+10 p/s and 3.24E+10 p/s and 1.94E+10 p/s and 2.84E+10 p/s
Total Flux [p/s] [2, 8]: 3.95E+10 p/s and 4.22E+10 p/s and 3.73E+10 p/s and 1.10E+11 p/s and 6.34E+10 p/s and 6.46E+10 p/s and 6.17E+10 p/s and 4.73E+10 p/s and 4.87E+10 p/s
Total flux minus background control mouse (ROI 1) [2, 8]: 3.92E+10 p/s and 4.19E+10 p/s and 3.70E+10 p/s and 1.10E+11 p/s and 6.31E+10 p/s and 6.43E+10 p/s and 6.13E+10 p/s and 4.70E+10 p/s and 4.84E+10 p/s
Total Flux minus ROI 1 (background) ([2]; Day 34, individual ROI (one per animal), background-subtracted, listed as ABT-199): 6.39E+10 p/s and 5.69E+10 p/s and 4.58E+10 p/s and 3.00E+11 p/s and 1.05E+11 p/s and 1.25E+11 p/s and 8.20E+10 p/s and 1.20E+11 p/s and 6.30E+10 p/s
Total Flux ([2]; Day 34, individual ROI (one per animal, ROI 2-10), raw value, listed as ABT-199): 6.47E+10 p/s and 5.77E+10 p/s and 4.66E+10 p/s and 3.01E+11 p/s and 1.06E+11 p/s and 1.26E+11 p/s and 8.28E+10 p/s and 1.21E+11 p/s and 6.39E+10 p/s
Total Flux minus ROI 1 (background) ([2]; Day 38, individual ROI (one per animal), background-subtracted, listed as ABT-199): 3.53E+10 p/s and 1.45E+11 p/s and 3.00E+11 p/s and 1.27E+11 p/s and 1.37E+11 p/s and 1.69E+11 p/s and 9.41E+10 p/s and 1.57E+11 p/s
Total Flux ([2]; Day 38, individual ROI (one per animal, ROI 2-10), raw value, listed as ABT-199): 3.60E+10 p/s and 1.46E+11 p/s and 3.01E+11 p/s and 1.27E+11 p/s and 1.38E+11 p/s and 1.69E+11 p/s and 9.48E+10 p/s and 1.57E+11 p/s
Total Flux minus ROI 1 (background) ([2]; Day 41, individual ROI (one per animal), background-subtracted, listed as ABT-199): 2.65E+11 p/s and 1.77E+09 p/s and 1.55E+11 p/s and 4.70E+11 p/s and -1.25E+08 p/s and 2.06E+11 p/s and 5.84E+11 p/s and 2.05E+08 p/s and 1.78E+11 p/s
Total Flux ([2]; Day 41, individual ROI (one per animal, ROI 2-10), raw value, listed as ABT-199): 2.66E+11 p/s and 3.30E+09 p/s and 1.57E+11 p/s and 4.71E+11 p/s and 1.41E+09 p/s and 2.08E+11 p/s and 5.85E+11 p/s and 1.74E+09 p/s and 1.80E+11 p/s
Total Flux minus ROI 1 (background) ([2]; Day 45, individual ROI (one per animal), background-subtracted, listed as ABT-199): -3.57E+08 p/s and -4.07E+08 p/s and -2.51E+08 p/s and -8.01E+08 p/s and 2.76E+08 p/s and 4.15E+11 p/s and -2.10E+07 p/s and 1.27E+08 p/s and 8.71E+11 p/s
Total Flux ([2]; Day 45, individual ROI (one per animal, ROI 2-10), raw value, listed as ABT-199): 9.69E+08 p/s and 9.19E+08 p/s and 1.08E+09 p/s and 5.25E+08 p/s and 1.60E+09 p/s and 4.16E+11 p/s and 1.30E+09 p/s and 1.45E+09 p/s and 8.72E+11 p/s
